One test has as its target T1, sAPPβ (Homo sapiens, UniProt P05067).
T1 construct: Biotinylated APP and biotinylated sAPPβ were immobilized to a SA-coated sensor chip
Description: Biacore S51 binding to immobilized biotinylated sAPPβ. The conditions noted are these: Biacore S51, SA-coated sensor chip. The protocol: (§1) The compounds of formula (I) are believed to inhibit APP cleavage function by binding APP. The binding of the compound of Example 1 to APP was assayed by BiacoreS51. Biotinylated APP and biotinylated sAPPβ were immobilized to a SA-coated sensor chip. A titration of Example 1 was injected and the binding response for each concentration of Example 1 was obtained for both proteins. FIG. 5 is a graph of response units for […] (◯) or the BACE 1 inhibitor Statine-Val ( ? ) binding to APP.
For orientation: In SPR one partner is held on a chip, and binding of the other changes the refractive index at the surface.

In the next test the target is APP (Homo sapiens, UniProt P05067). Description: Biacore S51 binding to immobilized biotinylated APP. The following applies: Biacore S51, SA-coated sensor chip. As to the method:
as §1

In test [1] the target is T2, BACE2 (Homo sapiens, UniProt P05067, K670N/M671F/D672E/A673V).
T2 construct: IC50, BACE2 cleavage of APP at the beta-secretase cleavage site; other: MBP-biotinylated APP fusion protein with NFEV s; activity against BACE2 cleavage of APP at the beta-secretase position; other: result in words; biotin label
As to the kind of experiment: BACE2 cleavage of APP at the beta-secretase cleavage site (ALPHA). It counts as biochemical. The conditions noted are these: result in words. The protocol: (§2) The effect of Examples 1-4 on cleavage of APP at the beta-secretase cleavage site was assayed as follows:
(§3) • 25 μL 0.2 M Sodium Acetate, pH 4.5 • 10 μL 10× protease inhibitor cocktail (Roche, cat # 1836153) • 10 μL Bovine Serum Albumin (1 mg/mL solution) • 4 μL 5% CHAPS • 1 μL EDTA (150 mM, pH 4.5) • 2 μL DF • 4 μL MBP(Maltose binding protein)—biotininylated APP fusion protein containing the NFEV BACE cleavage site (bacterially expressed, 10 μM solution) • 1 μL DMSO or compound dissolved in DMSO • 2 μL BACE2 (CHO cell expressed protein, 250 nM) • 41 μL distilled water The reactions were incubated at 37° C. for 30 minutes, and were then quenched with 4 μL 1 M TrisHCl, pH 8.0. Detection of MBP Biotin APP(NF) Cleavage Product using ALPHA ALPHA Assay Mix was Prepared as Follows: • 20 μL Streptavidin Donor Beads (from AlphaScreen General IgG (Protein A) Detection Kit Perkin Elmer Life Sciences); 10,000 pts (Part Number 6760617M) • 20 μL Protein A Acceptor beads (from AlphaScreen General IgG (Protein A) Detection Kit Perkin Elmer Life Sciences); 10,000 pts (Part Number 6760617M) • 3.7 μL Affinity purified anti-NF antibody (203 μg/mL) (described in WO 02/094985) • 4.5 mL 0.1% BSA in PBS • 4 μL of quenched reaction mixture was combined with 46 μL of the assay mix. The reactions were incubated at room temperature overnight and read using the ALPHAQuest plate reader.

Test [2] addresses T3, BACE2 (Homo sapiens, UniProt P05067, A673V/D672E/K670N/M671F).
T3 construct: IC50, BACE2 cleavage of APP at the beta-secretase cleavage site; other: MBP-biotinylated APP fusion protein with NFEV s; activity against BACE2 cleavage of APP at the beta-secretase position; other: result in words; biotin label
Described as above. The conditions noted are these: MBP-biotinylated APP fusion protein with NFEV site, pH 4.5, 30 minutes. It counts as biochemical. The protocol: as §2, §3

In a further test the target is gamma-secretase (Homo sapiens, UniProt P05067). As to the kind of experiment: Gamma-secretase cleavage of CTFβ substrate (HeLa cell membrane extract). The class given is biochemical. The following applies: Aβ40 detection with 6E-10/G2-10, read-out: CTFβ CLEAVAGE AT POSITION 40. The protocol:
Accordingly, Examples 1-4 were tested for their ability to inhibit gamma-secretase cleavage of both a full-length CTFβ substrate, as described in Li, 2000, Proc. Natl Acad Sci. 97:6138-6143. The assays were carried out as follows:
Inhibition of CTFβ Cleavage
• 10 μL 10× protease inhibitor cocktail (Roche, cat # 1836153) • 25 μL 4× Buffer (50 mM PIPES pH7.0, 150 mM KCl, 5 mM MgCl2, 5 mM CaCl2) • 2 μL 10% CHAPSO • 5 μL HeLa cell membrane extract characterized for gamma-secretase activity • 7 μL 25 μM bacterially expressed CTFβ • 51 μL water • 1 μL compound in DMSO The reactions were incubated at 37° C. for 150 min and quenched with 25 μL 5× RIPA buffer (750mM NaCl, 5% NP-40, 2.5% DOC, 0.5% SDS, 250 mM Tris H8.0). Detection:
Gamma-secretase cleavage of the CTFβ substrate was assessed by incubating 50 μL of the reaction with 25 μL of 4 μg/mL biotinylated antibody 6E-10 which is specific for the N-terminal region of Aβ, and 25 μL of 1.5 μg/mL of a ruthinylated antibody G2-10, which is specific to the C-terminal region of Aβ40. The C-terminal region is present only after gamma secretase cleavage of Aβ. The antibodies were allowed to bind overnight at room temperature. The following day, 25 μL of 80 μg/mL streptavidin-coated Dynabeads (M-280) were added to each reaction, allowed to bind for 30 minutes, and quenched with 275 μL IGEN assay buffer. Quantification of the gamma-secretase cleavage products was carried out using an Origen Analyzer.

In the next test the test system is BACE1. As to the kind of experiment: BACE cleavage of the full length APP. It counts as biochemical. The following applies: result in words.
In test [3] the test system is H4 neuroglioma cells expressing CTF99. Description: Secreted Aβ42 and Aβ40 in H4 neuroglioma cells expressing CTF99 (ECL). The class given is cell-based. The conditions noted are these: 20 h treatment, conditioned media, FIG. 4. As to the method: The compound of Example 1 was titrated into H4 neuroglioma cells expressing CTF99. The cells were treated with the compound of Example 1 for 20 h and conditioned media was harvested.

In test [4] the test system is BACE2. As to the kind of experiment: BACE2 cleavage of EV amyloid / Aβ (mass spectrometric analysis). The following applies: 100 μM; result in words. It counts as biochemical. The protocol: The effect of inhibition of BACE 2 cleavage of EV amyloid was assayed using a protocol described in Shi et al, 2003, J. Biol. Chem., 278:21286-21294. The results of assaying Examples 1-4 at 100 μM are shown below: […]

The next test deals with BACE 1 (Homo sapiens, UniProt P05067). Description: Western blot of BACE 1 cleavage of APP variant. The class given is biochemical. The following applies: bacterially expressed APP variant, BACE 1 protein, 1 h at 37° C.; read-out: IC50, inhibition of BACE cleavage of APP (densitometric quantitation of Western blot). The protocol:
A bacterially expressed APP variant containing an enhanced BACE cleavage sequence was incubated with Example 2 and BACE 1 protein for 1 h at 37° C. to conduct a Western blot analysis. The reaction was run on a gel and blotted. The BACE-specific cleavage product was detected using an antibody specifically recognizing the N-terminal product arising after BACE cleavage.
FIG. 2(A) depicts the Western blot.

Consider `O=C(O)COc1cc2c(cc1CCCOc1ccccc1)OC(CCc1ccccc1)C2` (stereo not shown) [Example 1, {[6-(3-phenoxypropyl)-2-(2-phenylethyl)-2,3-dihydro-1-benzofuran-5-yl]oxy} acetic acid], for which the “binding to sAPPβ” value on sAPPβ is “does not bind sAPPβ”. On APP, the “binding to APP” value is “binds APP”. The “activity against BACE2 cleavage of APP at the beta-secretase position” value on BACE2 [1] was “capable of inhibiting BACE2 cleavage of APP at the beta-secretase position with similar effectiveness to their inhibition of BACE1 cleavage at the same site”. Also, the IC50 against BACE2 [2] turned out to be 9 µM; on gamma-secretase it was 29 µM. For the same compound, the “inhibition of BACE (BACE1) cleavage/processing of full length APP” value with BACE1 is “inhibit both BACE processing of APP”. Further, the “production of Aβ42 relative to Aβ40” value in [3] was “decrease the production of Aβ42 relative to the production of Aβ40”.

`O=C(O)COc1cc2c(cc1CCCOc1ccccc1Cl)OC(CCc1ccccc1)C2` (stereo not shown) [Example 2, {[6-[3-(2chlorophenoxy)propyl)-2-(2-phenylethyl)-2,3-dihydro-1-benzofuran-5-yl]oxy} acetic]: the “activity against BACE2 cleavage of APP at the beta-secretase position” value on BACE2 [1] is listed as “capable of inhibiting BACE2 cleavage of APP at the beta-secretase position with similar effectiveness to their inhibition of BACE1 cleavage at the same site”. Further, the IC50 against BACE2 [2] came to 4 µM; at gamma-secretase, 8 µM; on BACE 1, 11 µM. For the same compound, the “effect on BACE2 cleavage at positions 19 and 20” value with BACE2 [4] is “substantially enhanced cleavage at positions 19 and 20”. Further, the “inhibition of BACE (BACE1) cleavage/processing of full length APP” value in the test on BACE1 is on record as “inhibit both BACE processing of APP”.

(Values after patent publication US20070202547A1, “Methods For Detecting Substances Which Bind To The Amyloid Precursor Protein Or Beta Amyloid Fragments, And Binding Compounds” (priority 2004, published 2007).)
